Experimental data from patent US10093642B2, “Multitarget hedgehog pathway inhibitors and uses thereof” (UNIVERSITA' DEGLI STUDI DI SIENA, priority 2013, dated 2018).

System: Hh pathway (Gli-RE reporter, activated by SMO agonist SAG)
Test: Gli-luciferase reporter assay in SAG-treated NIH 3T3 Shh-light II cells
Type: cell-based
Settings: 5 μM, Shh Light II cells, preliminary results
Description: FIG. 4. Effect of active natural compounds identified by the pharmacophore screening in a luciferase assay, where the gene reporter was Gli1 and the pathway was activated by the SAG molecule, a potent SMO agonist. Natural compounds were tested at three different concentrations (1, 10 and 20 μM) and their activity was compared to that of cyclopamine, the natural compound reference inhibitor of the Hedgehog pathway, which was tested at the same doses (1, 10 and 20 μM). On both graphs the activity of cyclopamine is reported as reference standard. (A) cyclopamine, 2,4,5,3′,4′-penta-Ome chalcone and Auriculasin; (B) cyclopamine, Martinoside, Jaceidin, 2,4,5,3′,4′-penta-Ome chalcone, 3,4-di-MDO-2′,4′,5′-tri-Ome dihydrochalcone.
FIG. 6. Dose-response curve of Glabrescione B in SAG (Smoothened Agonist, 200 nM) treated NIH 3T3 Shh-light II (Shh-LII) cells. Treatment time was 48 h and normalization was against Renilla luciferase. Shown is the fold increase of Hh reporter activity compared with cells not treated with SAG.
FIG. 19. Effect of derivatives NT8, NT9, NT10, NT11, NT12, NT13, NT14 and NT15 on the Hedgehog pathway, measured at 5 μM dose in a luciferase assay where the gene reporter was Gli1 and the pathway was activated by the SAG molecule, a potent SMO agonist. […]
To investigate the inhibitory properties of Glabrescione B on Hh signaling, the inventors examined its effects in NIH 3T3 Shh-light II (Shh-LII) cells stably incorporating an Hh-responsive (Gli-RE) reporter, in which induction of the pathway occurs following treatment with the SMO agonist SAG. […] The IC50 in this assay was 0.8 μM.
The ability of Glabrescione B to suppress Hh signaling was assessed in a cellular context of Hh pathway induction. To this end, the antagonist properties of Glabrescione B were determined in Shh Light II (ATCC, cat. # CRL-2795), a murine fibroblast NIH 3T3 cell line. These cells, stably incorporating the Gli-luc reporter and the pRL-TK Renilla reniformis (as described in Taipale, Chen et al. 2000) are a standard tool used to assay Hh pathway activity. The cells that reached the confluence were treated for 48 h with the SMO agonist SAG (200 nM, Alexis, cat. #ALX-270-426-M001) in absence or in presence of Glabrescione B at the amount indicated in FIG. 6. […] Control cells were treated with only DMSO (0.5%, SERVA, cat. #39757.02) Determination of luciferase activities was carried out using the Dual-Luciferase assay according to manufacturer's instructions (Dual-Luciferase® Reporter assay system; Promega, cat. # E1980). All presented data are firefly luciferase activity reported to the Renilla control activity. […] IC50 of 0.8 μM, represents the concentration of Glabrescione B necessary to have fifty percent of inhibition.
Evaluation of the Hh inhibitory activity of these molecules at 5 μM was preliminarily conducted in vitro on Shh Light II cells (see example 2).

Row | Molecule | Hh inhibitory activity compared with Glabrescione B
1 | COc1cc(OC)c2c(=O)c(-c3ccc(OC)c(OCC=C(C)C)c3)coc2c1 [NT8, 3-[3′-(3-methyl-but-2-enyloxy)-4′-methoxyphenyl]-5,7-dimethoxy-4H-chromen-4-one] | more potent than Glabrescione B
2 | COc1cc(OC)c2c(=O)c(-c3ccc(OC)c(OCc4ccccc4)c3)coc2c1 [NT9, 3-(3′-Benzyloxy-4′-methoxyphenyl)-5,7-dimethoxy-4H-chromen-4-one] | more potent than Glabrescione B

Same assay, conditions: Gli1 gene reporter, pathway activated by SAG; cyclopamine as reference

Row | Molecule | effect on Hh pathway in luciferase assay
3 | COc1ccc(C(=O)C=Cc2c(OC)cc(OC)c(OC)c2OC)cc1OC [2,3,4,6,3′,4′-hexa-OMe Chalcone] | inhibit the Hh pathway
4 | COc1cc(OC)c(OC)cc1C=CC(=O)c1ccc(OC)c(OC)c1 [2,4,5,3′,4′-penta-OMe Chalcone] | inhibit the Hh pathway
5 | COc1cc(OC)c(C(=O)CCc2ccc3c(c2)OCO3)cc1OC [3,4-di-MDO-2′,4′,5′-tri-OMe dihydrochalcone] | inhibit the Hh pathway
6 | CC(C)=CCc1c2c(c(O)c3c(=O)c(-c4ccc(O)c(O)c4)coc13)C=CC(C)(C)O2 [Auriculasin] | inhibit the Hh pathway
7 | COc1cc(-c2oc3cc(O)c(OC)c(O)c3c(=O)c2OC)ccc1O [Jaceidin] | inhibit the Hh pathway
8 | COc1ccc(CCO[C@@H]2O[C@H](CO)[C@@H](OC(=O)/C=C/c3ccc(O)c(OC)c3)[C@H](O[C@@H]3O[C@@H](C)[C@H](O)[C@@H](O)[C@H]3O)[C@H]2O)cc1O [Martinoside] | inhibit the Hh pathway

Same assay, conditions: pharmacophore screening hits

Row | Molecule | activity as Hh inhibitor in luciferase assay (classification)
9 | C[C@@H]1CC[C@]2(C(=O)O)CC[C@]3(C)C(=CC[C@@H]4[C@@]5(C)CC[C@@H](O)[C@](C)(CO)[C@@H]5CC[C@]43C)[C@@H]2[C@]1(C)O [Barbinervic Acid] | not active
10 | COc1ccc([C@@H]2CC(=O)c3c(O)cc(O[C@@H]4O[C@H](CO[C@@H]5O[C@@H](C)[C@H](O)[C@@H](O)[C@H]5O)[C@@H](O)[C@H](O)[C@H]4O)cc3O2)cc1O [Hesperidin] | not active
11 | CC(C)=CCc1c(O)ccc(C(=O)C2C(c3c(O)cc(/C=C/c4ccc(O)cc4O)cc3O)C=C(C)CC2c2ccc(O)cc2O)c1O (stereo not drawn) [Kuwanol-E] | not active
12 | O=c1c(O)c(-c2cc(O)c(O)c(O)c2)oc2cc(O)cc(O)c12 [Myricetin] | not active
13 | C[C@@H]1O[C@@H](O[C@H]2[C@H](Oc3cc(O)c4c(c3)O[C@H](c3ccc(O)cc3)CC4=O)O[C@H](CO)[C@@H](O)[C@@H]2O)[C@H](O)[C@H](O)[C@H]1O [Naringin] | not active
14 | CC1=CC2c3c(O)cc(/C=C/c4ccc(O)cc4O)cc3OC3(c4ccc(O)c5c4OC(C)(C)C=C5)Oc4cc(O)ccc4C(C1)C23 (stereo not drawn) [Sorocein-A] | not active
15 | CC1=CC2c3c(ccc(C(=O)/C=C/c4ccc(O)cc4O)c3O)OC3(c4ccc(O)c5c4OC(C)(C)C=C5)Oc4cc(O)ccc4C(C1)C23 (stereo not drawn) [Sorocein-B] | not active
16 | Isosophoranon | not active
17 | Veratrin | not active

Target: SMO heptahelical domain (Homo sapiens, UniProt Q99835)
Sequence (Q99835 28-787): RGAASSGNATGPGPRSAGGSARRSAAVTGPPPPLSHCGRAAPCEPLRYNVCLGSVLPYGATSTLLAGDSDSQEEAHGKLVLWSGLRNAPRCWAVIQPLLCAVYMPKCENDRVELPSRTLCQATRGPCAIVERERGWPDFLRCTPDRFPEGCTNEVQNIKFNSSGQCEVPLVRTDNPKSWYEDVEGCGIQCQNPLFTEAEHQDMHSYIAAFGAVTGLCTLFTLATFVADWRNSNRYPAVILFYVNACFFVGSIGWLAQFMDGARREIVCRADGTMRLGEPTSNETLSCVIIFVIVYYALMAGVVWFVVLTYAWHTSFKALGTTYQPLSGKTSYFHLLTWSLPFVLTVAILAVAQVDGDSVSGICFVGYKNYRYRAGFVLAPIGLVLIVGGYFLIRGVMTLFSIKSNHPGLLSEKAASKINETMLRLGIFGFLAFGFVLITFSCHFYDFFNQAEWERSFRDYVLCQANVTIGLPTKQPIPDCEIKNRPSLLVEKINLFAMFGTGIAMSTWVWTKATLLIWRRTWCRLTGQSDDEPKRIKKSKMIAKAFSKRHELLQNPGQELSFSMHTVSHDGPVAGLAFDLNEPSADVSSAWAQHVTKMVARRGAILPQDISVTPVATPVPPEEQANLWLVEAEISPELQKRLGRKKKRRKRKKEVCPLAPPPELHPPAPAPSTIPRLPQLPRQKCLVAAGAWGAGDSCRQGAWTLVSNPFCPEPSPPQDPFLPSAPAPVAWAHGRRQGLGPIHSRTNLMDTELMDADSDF
Test: not given
Settings: cited from earlier work

Row | Molecule | Kd [nM]
18 | CNC1CCC(N(Cc2cccc(-c3ccncc3)c2)C(=O)c2sc3ccccc3c2Cl)CC1 (stereo not drawn) [SAG] | 59

System: Hh pathway (Gli-RE reporter, activated by SMO agonist SAG)
Test: Gli-luciferase reporter assay in SAG-treated NIH 3T3 Shh-light II cells
Type: cell-based
Settings: Mus musculus, moderately active class

Row | Molecule | inhibition at 30 µM [%]
19 | CC(C)=CCc1c2c(c(O)c3c(=O)c(-c4ccc(O)c(O)c4)coc13)C=CC(C)(C)O2 [Auriculasin] | ≤ 30

System: not given
Test: not given
Settings: not given

Row | Molecule | melting point [°C]
20 | COc1cc(OC)c2c(=O)c(-c3ccc(OC)c(OCc4ccccc4)c3)coc2c1 [NT9, 3-(3′-Benzyloxy-4′-methoxyphenyl)-5,7-dimethoxy-4H-chromen-4-one] | 126
21 | COc1cc(OC)c2c(=O)c(-c3ccc(OC)c(OCc4ccc(C(F)(F)F)cc4)c3)coc2c1 [NT11, 5,7-Dimethoxy-3-[4-methoxy-3-(4-trifluoromethyl-benzyloxy)-phenyl]-chromen-4-one] | 128.6 to 129.1
22 | COc1cc(OC)c2c(=O)c(-c3ccc(OCC=C(C)C)c(OC)c3)coc2c1 [NT12, 5,7-Dimethoxy-3-[3′-methoxy-4′-(3-methyl-but-2-enyloxy)-phenyl]-chromen-4-one] | 130.7 to 131.8
23 | COc1cc(OC)c2c(=O)c(-c3ccc(OCc4ccccc4)c(OC)c3)coc2c1 [NT13, 3-(4-Benzyloxy-3-methoxy-phenyl)-5,7-dimethoxy-chromen-4-one] | 142.8 to 143.7
24 | COc1cc(OC)c2c(=O)c(-c3ccc(OCc4ccc(C(F)(F)F)cc4)c(OC)c3)coc2c1 [NT15, 5,7-Dimethoxy-3-[3-methoxy-4-(4-trifluoromethyl-benzyloxy)-phenyl]-chromen-4-one] | 128.4 to 130.2
